Assay results reported in publication PMC6695839, “Interspecies Variation in NCMN-O-Demethylation in Liver Microsomes from Various Species” (Molecules, 2019).

T1: CYP1A in mouse liver microsomes (MLM) (Mus musculus, UniProt P00186)
T1 sequence (P00186 2-513): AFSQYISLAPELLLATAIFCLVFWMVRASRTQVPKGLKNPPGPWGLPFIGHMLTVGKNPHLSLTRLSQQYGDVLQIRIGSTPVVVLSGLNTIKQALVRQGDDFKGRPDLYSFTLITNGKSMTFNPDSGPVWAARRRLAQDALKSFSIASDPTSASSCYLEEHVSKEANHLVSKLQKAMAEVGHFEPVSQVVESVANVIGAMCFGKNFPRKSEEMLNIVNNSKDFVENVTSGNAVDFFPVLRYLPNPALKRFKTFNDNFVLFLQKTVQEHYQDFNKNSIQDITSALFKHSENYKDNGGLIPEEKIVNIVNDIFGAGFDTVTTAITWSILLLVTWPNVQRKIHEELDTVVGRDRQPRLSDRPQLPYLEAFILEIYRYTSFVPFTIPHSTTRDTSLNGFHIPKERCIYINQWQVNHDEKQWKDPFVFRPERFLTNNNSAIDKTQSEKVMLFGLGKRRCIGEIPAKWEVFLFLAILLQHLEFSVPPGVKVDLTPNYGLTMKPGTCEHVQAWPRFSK

T2: CYP1A in beagle dog liver microsomes (DLM) (Canis lupus familiaris, UniProt P56592)
T2 sequence (P56592 2-512): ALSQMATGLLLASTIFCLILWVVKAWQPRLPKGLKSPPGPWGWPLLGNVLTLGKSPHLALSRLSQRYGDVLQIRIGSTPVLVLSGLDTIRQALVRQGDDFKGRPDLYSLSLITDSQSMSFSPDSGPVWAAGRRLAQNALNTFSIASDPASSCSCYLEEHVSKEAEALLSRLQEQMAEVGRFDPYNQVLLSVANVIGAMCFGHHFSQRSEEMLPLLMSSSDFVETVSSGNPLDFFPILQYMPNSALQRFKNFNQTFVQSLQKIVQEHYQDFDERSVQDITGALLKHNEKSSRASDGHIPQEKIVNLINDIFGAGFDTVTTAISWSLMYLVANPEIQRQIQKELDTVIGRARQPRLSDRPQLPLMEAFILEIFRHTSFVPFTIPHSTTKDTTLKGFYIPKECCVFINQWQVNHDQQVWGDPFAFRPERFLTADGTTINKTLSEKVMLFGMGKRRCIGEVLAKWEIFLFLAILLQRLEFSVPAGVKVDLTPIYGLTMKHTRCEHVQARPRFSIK

T3: CYP1A (NCMN O-demethylation) (Mus musculus, UniProt P00186)
T3 sequence (P00186 2-513): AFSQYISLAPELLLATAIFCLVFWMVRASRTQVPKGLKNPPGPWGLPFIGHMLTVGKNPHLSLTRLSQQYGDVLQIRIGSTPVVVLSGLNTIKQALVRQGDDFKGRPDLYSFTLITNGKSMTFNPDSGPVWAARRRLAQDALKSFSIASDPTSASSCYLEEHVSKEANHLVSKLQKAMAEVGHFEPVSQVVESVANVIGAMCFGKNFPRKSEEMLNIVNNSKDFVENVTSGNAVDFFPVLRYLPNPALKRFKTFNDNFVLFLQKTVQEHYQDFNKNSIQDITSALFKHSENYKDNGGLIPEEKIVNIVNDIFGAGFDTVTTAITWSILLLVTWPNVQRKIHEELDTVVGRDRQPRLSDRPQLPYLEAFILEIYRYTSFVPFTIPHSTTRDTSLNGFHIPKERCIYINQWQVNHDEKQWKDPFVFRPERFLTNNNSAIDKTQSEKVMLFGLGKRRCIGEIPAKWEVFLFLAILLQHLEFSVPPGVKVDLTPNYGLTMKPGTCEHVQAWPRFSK

T4: CYP1A (NCMN O-demethylation) (Canis lupus familiaris, UniProt P56592)
T4 sequence (P56592 2-512): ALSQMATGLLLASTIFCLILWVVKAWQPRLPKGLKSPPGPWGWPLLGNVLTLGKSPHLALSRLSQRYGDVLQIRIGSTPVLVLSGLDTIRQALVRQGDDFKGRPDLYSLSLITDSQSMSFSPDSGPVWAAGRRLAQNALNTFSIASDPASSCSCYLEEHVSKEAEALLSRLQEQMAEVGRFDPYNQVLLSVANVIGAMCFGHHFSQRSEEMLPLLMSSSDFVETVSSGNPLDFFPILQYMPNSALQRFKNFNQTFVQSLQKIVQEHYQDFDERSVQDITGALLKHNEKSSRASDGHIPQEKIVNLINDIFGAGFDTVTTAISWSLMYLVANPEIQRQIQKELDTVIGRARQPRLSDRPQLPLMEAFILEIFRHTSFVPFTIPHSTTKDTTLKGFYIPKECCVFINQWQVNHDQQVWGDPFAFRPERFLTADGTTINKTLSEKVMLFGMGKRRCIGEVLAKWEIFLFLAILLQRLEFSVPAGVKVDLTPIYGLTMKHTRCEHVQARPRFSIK

T5: CYP1A in human liver microsomes (HLM) (Homo sapiens, UniProt P05177)
T5 sequence (P05177 2-516): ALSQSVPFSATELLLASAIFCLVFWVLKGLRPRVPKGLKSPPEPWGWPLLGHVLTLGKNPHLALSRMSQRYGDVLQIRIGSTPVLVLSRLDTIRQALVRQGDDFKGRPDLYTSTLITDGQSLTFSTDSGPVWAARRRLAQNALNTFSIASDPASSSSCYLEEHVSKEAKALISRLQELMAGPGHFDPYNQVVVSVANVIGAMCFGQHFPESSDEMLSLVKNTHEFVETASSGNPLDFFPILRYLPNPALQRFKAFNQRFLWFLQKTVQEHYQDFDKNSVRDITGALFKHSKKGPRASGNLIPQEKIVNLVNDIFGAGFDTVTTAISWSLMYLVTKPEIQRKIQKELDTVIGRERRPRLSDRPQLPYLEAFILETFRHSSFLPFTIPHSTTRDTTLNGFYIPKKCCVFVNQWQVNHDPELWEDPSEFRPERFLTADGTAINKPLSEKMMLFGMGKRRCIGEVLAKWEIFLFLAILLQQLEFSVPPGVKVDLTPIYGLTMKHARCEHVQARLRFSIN


What was measured:
[1] = system: CYP1A in rat liver microsomes (RLM); assay: Inhibition of NCMN-O-demethylation by CYP inhibitors in rat liver microsomes; settings: RLM; 10 µM NCMN; 100 µM furafylline, 10 µM sulfaphenazole, 200 µM troleandomycin, 500 µM 1-ABT
[2] = target: T1, CYP1A in mouse liver microsomes (MLM); assay: Inhibition of NCMN-O-demethylation by CYP inhibitors in mouse liver microsomes; settings: MLM; 10 µM NCMN; 100 µM furafylline, 10 µM sulfaphenazole, 200 µM troleandomycin, 500 µM 1-ABT
[3] = system: CYP1A in minipig liver microsomes (PLM); assay: Inhibition of NCMN-O-demethylation by CYP inhibitors in minipig liver microsomes; settings: PLM; 10 µM NCMN; 100 µM furafylline, 10 µM sulfaphenazole, 200 µM troleandomycin, 500 µM 1-ABT
[4] = target: T2, CYP1A in beagle dog liver microsomes (DLM); assay: Inhibition of NCMN-O-demethylation by CYP inhibitors in beagle dog liver microsomes; settings: DLM; 10 µM NCMN; 100 µM furafylline, 10 µM sulfaphenazole, 200 µM troleandomycin, 500 µM 1-ABT
[5] = system: CYP1A in cynomolgus monkey liver microsomes (CyLM); assay: Inhibition of NCMN-O-demethylation by CYP inhibitors in cynomolgus monkey liver microsomes; settings: CyLM; 10 µM NCMN; 100 µM furafylline, 10 µM sulfaphenazole, 200 µM troleandomycin, 500 µM 1-ABT
[6] = system: CYP1A (NCMN O-demethylation); assay: Inhibition of NCMN-O-demethylation by CYP inhibitors in rat liver microsomes; settings: rat, rat liver microsomes, pH 7.4, probe NCMN (various concentrations; formation of NCHN)
[7] = target: T3, CYP1A (NCMN O-demethylation); assay: Inhibition of NCMN-O-demethylation by CYP inhibitors in mouse liver microsomes; settings: mouse, pH 7.4
[8] = system: CYP1A (NCMN O-demethylation); assay: Inhibition of NCMN-O-demethylation by CYP inhibitors in minipig liver microsomes; settings: minipig, pig, minipig liver microsomes, pH 7.4, probe NCMN (various concentrations; formation of NCHN)
[9] = target: T4, CYP1A (NCMN O-demethylation); assay: Inhibition of NCMN-O-demethylation by CYP inhibitors in beagle dog liver microsomes; settings: beagle, dog, pH 7.4
[10] = system: CYP1A (NCMN O-demethylation); assay: Inhibition of NCMN-O-demethylation by CYP inhibitors in cynomolgus monkey liver microsomes; settings: cynomolgus monkey, cynomolgus monkey liver microsomes, pH 7.4, probe NCMN (various concentrations; formation of NCHN)
[11] = target: T5, CYP1A in human liver microsomes (HLM); assay: Inhibition of NCMN-O-demethylation by CYP inhibitors in human liver microsomes; settings: 10 µM NCMN, 100 µM furafylline, 10 µM sulfaphenazole, 200 µM troleandomycin, 500 µM 1-ABT
[12] = substrate: COc1ccc2c3c(cccc13)C(=O)N(CCCC(=O)O)C2=O; assay: Kinetic analysis of NCMN-O-demethylation in human CYP1A2; assay type: in vitro ADME; settings: other: CYP1A2 (human); substrate 1-150 µM; pH 7.4; 37.0 °C
Experimental: (§1) The formation rates of NCHN were within the linear range of the protein concentration and incubation time. NCMN (1, 2.5, 5, 7.5, 10, 25, 50, 75, 100 and 150 µM) was incubated with HLM, MLM, RLM, DLM, PLM, CyLM (0.25mg protein/mL) as well as rat CYP1A2 (100 nM) for 30min. […] .

[13] = substrate: COc1ccc2c3c(cccc13)C(=O)N(CCCC(=O)O)C2=O; assay: Kinetic analysis of NCMN-O-demethylation in cDNA-expressed rat CYP1A2; assay type: in vitro ADME; settings: other: CYP1A2 (Rat), 100 nM; Michaelis-Menten; substrate 1-150 µM; pH 7.4; 37.0 °C
Experimental: as §1

| Molecule | Inhibition of the formation of NCHN [1] | Inhibition of the formation of NCHN [2] | Inhibition of the formation of NCHN [3] | Inhibition of the formation of NCHN [4] | Inhibition of the formation of NCHN [5] | further results |
| --- | --- | --- | --- | --- | --- | --- |
| Nn1nnc2ccccc21 [ABT, 1-Aminobenzotriazole] | potently inhibit | potently inhibit | potently inhibit | potently inhibit | potently inhibit |  |
| Cc1nc2c([nH]1)c(=O)n(C)c(=O)n2Cc1ccco1 [furafylline] | near completely | near completely | lower inhibitory effects | lower inhibitory effects | lower inhibitory effects | IC50 [6]: […]; IC50 [7]: 5.73 µM; IC50 [8]: […]; IC50 [9]: 26.8 µM; IC50 [10]: […] |
| Nc1ccc(S(=O)(=O)Nc2ccnn2-c2ccccc2)cc1 [sulfaphenazole] | less than 25% | less than 25% | less than 25% | less than 25% | less than 25% | Inhibition of the formation of NCHN [11]: less than 25% |
| CYP1A2 (human) (Homo sapiens) (protein) MALSQSVPFSATELLLASAIFCLVFWVLKGLRPRVPKGLKSPPEPWGWPLLGHVLTLGKNPHLALSRMSQRYGDVLQIRIGSTPVLVLSRLDTIRQALVRQGDDFKGRPDLYTSTLITDGQSLTFSTDSGPVWAARRRLAQNALNTFSIASDPASSSSCYLEEHVSKEAKALISRLQELMAGPGHFDPYNQVVVSVANVIGAMCFGQHFPESSDEMLSLVKNTHEFVETASSGNPLDFFPILRYLPNPALQRFKAFNQRFLWFLQKTVQEHYQDFDKNSVRDITGALFKHSKKGPRASGNLIPQEKIVNLVNDIFGAGFDTVTTAISWSLMYLVTKPEIQRKIQKELDTVIGRERRPRLSDRPQLPYLEAFILETFRHSSFLPFTIPHSTTRDTTLNGFYIPKKCCVFVNQWQVNHDPELWEDPSEFRPERFLTADGTAINKPLSEKMMLFGMGKRRCIGEVLAKWEIFLFLAILLQQLEFSVPPGVKVDLTPIYGLTMKHARCEHVQARLRFSIN |  |  |  |  |  | Km [12]: 9.80 ± 0.67 µM; kcat [12]: 32.06 ± 0.50 nmol/min/nmol CYP |
| CYP1A2 (Rat) (Rattus norvegicus) (protein, purchased Research Institute for Liver Diseases (RILD, Shanghai, China) Lot.int066e1c) MAFSQYISLAPELLLATAIFCLVFWVLRGTRTQVPKGLKSPPGPWGLPFIGHMLTLGKNPHLSLTKLSQQYGDVLQIRIGSTPVVVLSGLNTIKQALVKQGDDFKGRPDLYSFTLITNGKSMTFNPDSGPVWAARRRLAQDALKSFSIASDPTSVSSCYLEEHVSKEANHLISKFQKLMAEVGHFEPVNQVVESVANVIGAMCFGKNFPRKSEEMLNLVKSSKDFVENVTSGNAVDFFPVLRYLPNPALKRFKNFNDNFVLFLQKTVQEHYQDFNKNSIQDITGALFKHSENYKDNGGLIPQEKIVNIVNDIFGAGFETVTTAIFWSILLLVTEPKVQRKIHEELDTVIGRDRQPRLSDRPQLPYLEAFILEIYRYTSFVPFTIPHSTTRDTSLNGFHIPKECCIFINQWQVNHDEKQWKDPFVFRPERFLTNDNTAIDKTLSEKVMLFGLGKRRCIGEIPAKWEVFLFLAILLHQLEFTVPPGVKVDLTPSYGLTMKPRTCEHVQAWPRFSK |  |  |  |  |  | Km [13]: 4.04 ± 0.16 µM; kcat [13]: 7.48±0.05 nmol/min/nmol CYP |
